Measurements as given in patent publication US20130331610A1, “Halogenated Pyrazolo[1,5-A]Pyrimidines, Processes, Uses, Compositions and Intermediates” (priority 2005, published 2013).
Where two headings read alike, the source gives them in different places.

What was measured:
HepG2 cells = assay: In vitro cell toxicity in HepG2 at 24 h (MTS); format: cell-based, human; details: for cell toxicity in HepG2, percentage of control (relative cell viability): 100 μM, 24 h, MTS; for cytotoxicity compared with prior art compounds: HepG2, 24 h
Experimental: In Vitro Determination of Cell Toxicity in HepG2 at 24 h
HepG2 cells (human hepatocellular carcinoma) were obtained from the American Type Culture Collection (ATCC) and cultured in Eagle's Minimum Essential Medium (Eagle) with Earle's balanced salt solution adjusted to contain 1.87 mM Glutamax™ I, 0.1 mM non-essential amino acids, 1.0 mM sodium pyruvate, 100000 U/L penicillin, 10000 μg/L streptomycin 90%; fetal bovine serum, 10%. Promega CellTiter 96® Aqueous Non-Radioactive Cell Viability Assay contains the tetrazolium compound [3-(4,5-dimethylthiazol-2-yl)-5-(3-carboxymethoxyphenyl)-2-(4-sulfophenyl)-2H-tetrazolium, inner salt (MTS). The conversion of MTS into the aqueous soluble formazan product is accomplished by dehydrogenase enzymes found in metabolically active cells. The quantity of formazan product is directly proportional to the number of living cells in culture.
Compounds were dissolved in DMSO to achieve an initial concentration of 100 mM. Serial dilutions were made from this stock solution into DMSO to achieve concentrations of 10, 1, 0.1 and 0.01 mM. The stock solution and serial dilutions were then diluted 1:100 with cell culture medium to obtain […] final assay concentrations of […]. The final DMSO concentration in all wells was 1% v/v. HepG2 cells were incubated with test compounds for 24 hours. Relative cell viability was determined spectrophotometrically at 490 nm following the addition of the MTS dye and further one-hour incubation. Tamoxifen was used as the positive control.
The percent absorbance of the samples treated with the test article was compared to the untreated sample to calculate the percentage of control.

[1] = target: α1 subunit of GABAA receptor (Rattus norvegicus, UniProt P18508+P62813); assay: biochemical; details: for inhibition at 10 µM: read-out: % Inhib 10^−5 M; for inhibition at 0.1 µM: read-out: % Inhib 10^−7 M
Source text: % specific binding=(X−N/T−N)×100

[2] = target: α2 subunit of GABAA receptor (Rattus norvegicus, UniProt P18508+P23576); assay: biochemical; details: for inhibition at 10 µM: read-out: % Inhib 10^−5 M; for inhibition at 0.1 µM: read-out: % Inhib 10^−7 M
Experimental: Determination of the Affinity of Test Compounds for α1- and α2-GABAA Receptor
Male Sprague-Dawley rats weighing 200-250 g at the time of experiment were used. After decapitation, the cerebellum (tissue that mostly contains α1-GABAA receptor) and spinal cord (tissue that mostly contains α2-GABAA receptor) were removed. […] Once the tissues weighed, they were suspended in 50 mM Tris.HCl (pH 7.4), 1:40 (v/v), or sucrose 0.32 M in the case of spinal cord, homogenized and then centrifuged at 20000 g for 10 min at 7° C. The resulting pellet was resuspended under the same conditions and centrifuged again. The pellet was finally resuspended on a minimum volume and kept at −80° C. overnight. On the next day, the process was repeated until the final pellet was resuspended at a ratio of 1:10 (v/v) in the case of cerebellum and at a ratio of 1:5 (v/v) in the case of spinal cord.
Affinity was determined by competitive tests using radiolabeled flumazenil as ligand. […] Simultaneously, the membranes were only incubated with the radiolabeled flumazenil (total binding, 100%) and in the presence of an elevated concentration of unradiolabeled flumazenil (non-specific binding, % estimation of radiolabeled ligand). The reactions started on adding the radiolabeled ligand followed by incubation for 60 minutes at 4° C. At the end of the incubation period, 200 μl of reaction were transferred to a multiscreen plate (Millipore) and filtered using a vacuum manifold and then washed three times with cold test buffer. The multiscreen plates were equipped with a GF/B filter that retained the membranes containing the receptors and the radiolabeled ligand which had been bound to the receptors. After washing, the plates were left till dry. Once dried, scintillation liquid was added and left under stirring overnight. The next day the plates were counted using a Perkin-Elmer Microbeta scintillation counter.
where, X: amount of bound ligand for every concentration of compound. T: total binding, maximum amount bound to the radiolabeled ligand. N: non-specific binding, amount of radiolabeled ligand bound in a non-specific way irrespective of the receptor used.
Every concentrations of each compound were tested in triplicate and their mean values were used to determine the experimental values of % specific binding versus the concentration of compound.

[3] = Metabolic stability in human hepatocytes cytosolic fraction; format: in vitro ADME; details: 5 μM, 1.0 mg/ml human cytosol, 37° C.
Experimental: In Vitro Determination of Metabolic Stability in Human Hepatocytes Cytosolic Fraction
Compounds were dissolved in DMSO to achieve an initial concentration of 10 mM. This stock solution was then diluted with solvent and buffer to obtain final assay concentration of 5 μM. Compounds were tested at a single concentration of 5 μM in duplicate incubating with 1.0 mg/ml of pooled human cytosol (obtained from Xenotech plc) at 37° C. Metabolism was assessed in the presence or absence of cofactors and measured as loss of parent compound by LC/MS analysis at 0, 60 and 120-minutes time points. Percent parent remaining was then calculated. A generic LC method was used: • Mobile phase: • A=0.1% Formic acid in water • B=0.1% Formic acid in acetonitrile • HPLC Column: Higgins Clipius C18 5 μm, 50×3 mm • Flow rate: 2 ml·min^−1

motor activity of mice = assay: In vivo predictive sedation-hypnosis test in mice (inhibition of traveled distance); parameters: species or system mouse; details: for inhibition in vivo at 0.98 µmol/kg / inhibition in vivo at 98 µmol/kg / inhibition in vivo at 3 µmol/kg: Mus musculus, read-out: % Inhib motor activity; for inhibition in vivo at 0.98 µmol/kg: 0.98 μmol/kg; for inhibition in vivo at 0.98 µmol/kg / inhibition in vivo at 98 µmol/kg / inhibition in vivo at 3 µmol/kg / inhibition percentage (motor activity): mice; for inhibition in vivo at 98 µmol/kg: 98 μmol/kg; for inhibition in vivo at 3 µmol/kg: 3 μmol/kg; for inhibition percentage (motor activity): 3 μmol/kg po
Experimental: 2—In Vivo Determination of Predictive Sedative-Hypnotic Action
The in vivo effects of these compounds were assessed by a predictive sedation-hypnosis test in mice (D. J. Sanger et al., Eur. J. Pharmacol., 313, 35-42, 1996; and G. Griebel et al., Psychopharmacology, 146, 205-213, 1999).
Groups of 5-8 male CD1 mice, weighing 22-26 g at the time of testing, were used. The test compounds were administered in single equimolecular intraperitoneal doses, suspended in 0.25% agar with one drop of Tween 80 in a volume of 10 ml/kg. Two doses were tested in each route. Control animals received the vehicle alone. Using a Smart System (Panlab, S. L., Spain) the traveled distance in cm was recorded for each mouse at 5-min intervals during a period of 30 minutes after intraperitoneal (ip) dosing and 60 minutes after oral (po) dosing. The inhibition percentage of traveled distance of treated animals versus control animals (the first 5 min were discarded) was calculated.

[4] = Pharmacokinetic profile after single intravenous dose in rats; format: in vivo; details: rat; for Vd / clearance / half-life: male, Sprague-Dawley, plasma; for Vd / clearance / half-life / AUC0-t: mean
Experimental: In Vivo Determination of Pharmacokinetic Profile after Single Dose
Indiplon was used as reference compound. Three male Sprague-Dawley rats, weighing 250-300 g were used for each compound. The sampling was performed by retroorbital sinus puncture at the following time points 2.5, 5, 30, 60, 120, 180, 300 and 420 min post-administration. The samples were kept in an ice-bath until plasma separation. The animals were anaesthetized by isoflurane inhaled at each extraction. Plasma was separated by centrifugation (10 min, 4° C., 4500 rpm) and stored at temperature below −70° C. until analysis.
An analytical method based on an extraction of each compound by liquid-solid extraction and subsequent determination by LC/MS or LC/MS/MS using an internal standard (IS) was used.
Calculation of pharmacokinetic parameters (AUC0-t=area under the curve from zero to last extraction time-point, Cl=clearance, t1/2=half-life and Vd=volume of distribution) according to non-compartmental analysis was performed.

Chain of α1 subunit of GABAA receptor (P62813 28-455): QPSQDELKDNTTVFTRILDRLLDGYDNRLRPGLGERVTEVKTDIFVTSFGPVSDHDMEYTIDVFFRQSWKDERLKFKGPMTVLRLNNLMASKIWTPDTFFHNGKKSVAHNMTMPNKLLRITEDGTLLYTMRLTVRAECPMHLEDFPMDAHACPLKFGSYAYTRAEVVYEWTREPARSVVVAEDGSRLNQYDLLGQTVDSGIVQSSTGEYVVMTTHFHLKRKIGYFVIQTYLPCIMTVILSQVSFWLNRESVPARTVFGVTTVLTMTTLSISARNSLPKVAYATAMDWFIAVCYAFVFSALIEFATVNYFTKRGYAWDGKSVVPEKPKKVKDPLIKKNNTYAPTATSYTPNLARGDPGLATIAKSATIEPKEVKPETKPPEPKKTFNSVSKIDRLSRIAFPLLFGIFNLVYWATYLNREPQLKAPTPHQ
Chain of α1 subunit of GABAA receptor (P18508 39-466): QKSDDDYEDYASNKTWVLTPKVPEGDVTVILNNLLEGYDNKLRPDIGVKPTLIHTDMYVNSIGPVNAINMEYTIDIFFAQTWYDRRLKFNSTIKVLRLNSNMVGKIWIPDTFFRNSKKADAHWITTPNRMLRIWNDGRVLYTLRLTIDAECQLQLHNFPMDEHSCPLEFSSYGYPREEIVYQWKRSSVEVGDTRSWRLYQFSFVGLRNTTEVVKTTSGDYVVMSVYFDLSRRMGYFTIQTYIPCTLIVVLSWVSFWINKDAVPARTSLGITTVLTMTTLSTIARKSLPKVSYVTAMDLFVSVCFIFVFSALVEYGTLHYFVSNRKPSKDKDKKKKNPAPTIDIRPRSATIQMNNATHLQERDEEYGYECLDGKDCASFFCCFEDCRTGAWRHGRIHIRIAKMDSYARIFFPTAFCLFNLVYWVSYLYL
Chain of α1 subunit of GABAA receptor (P63138 26-474 partner): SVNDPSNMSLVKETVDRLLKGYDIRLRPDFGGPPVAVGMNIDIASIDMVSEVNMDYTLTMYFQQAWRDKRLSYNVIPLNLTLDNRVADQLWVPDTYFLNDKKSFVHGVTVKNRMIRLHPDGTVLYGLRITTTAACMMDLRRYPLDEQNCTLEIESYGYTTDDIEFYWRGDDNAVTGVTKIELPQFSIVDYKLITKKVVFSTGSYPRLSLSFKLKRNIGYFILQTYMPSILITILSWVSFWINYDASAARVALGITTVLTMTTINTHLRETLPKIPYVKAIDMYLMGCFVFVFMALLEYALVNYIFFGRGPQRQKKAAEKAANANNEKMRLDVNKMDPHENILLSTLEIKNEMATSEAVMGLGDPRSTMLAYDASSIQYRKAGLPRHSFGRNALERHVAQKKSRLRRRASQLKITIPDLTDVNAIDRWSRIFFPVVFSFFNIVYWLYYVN
Chain of α2 subunit of GABAA receptor (P23576 29-451): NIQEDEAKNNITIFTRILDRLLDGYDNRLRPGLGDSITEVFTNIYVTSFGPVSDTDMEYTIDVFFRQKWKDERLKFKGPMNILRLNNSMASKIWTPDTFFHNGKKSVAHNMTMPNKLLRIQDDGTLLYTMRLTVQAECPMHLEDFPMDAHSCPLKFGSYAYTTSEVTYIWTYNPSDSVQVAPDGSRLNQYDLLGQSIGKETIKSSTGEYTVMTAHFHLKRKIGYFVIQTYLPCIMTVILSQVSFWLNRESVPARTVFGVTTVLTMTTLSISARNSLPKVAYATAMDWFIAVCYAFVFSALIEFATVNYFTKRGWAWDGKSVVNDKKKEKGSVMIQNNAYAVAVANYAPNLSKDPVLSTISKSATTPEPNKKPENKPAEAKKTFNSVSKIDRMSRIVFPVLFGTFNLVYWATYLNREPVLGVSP
Chain of α2 subunit of GABAA receptor (P18508 39-466): as the sequence (P18508 39-466) above
Chain of α2 subunit of GABAA receptor (P63079 26-473 partner): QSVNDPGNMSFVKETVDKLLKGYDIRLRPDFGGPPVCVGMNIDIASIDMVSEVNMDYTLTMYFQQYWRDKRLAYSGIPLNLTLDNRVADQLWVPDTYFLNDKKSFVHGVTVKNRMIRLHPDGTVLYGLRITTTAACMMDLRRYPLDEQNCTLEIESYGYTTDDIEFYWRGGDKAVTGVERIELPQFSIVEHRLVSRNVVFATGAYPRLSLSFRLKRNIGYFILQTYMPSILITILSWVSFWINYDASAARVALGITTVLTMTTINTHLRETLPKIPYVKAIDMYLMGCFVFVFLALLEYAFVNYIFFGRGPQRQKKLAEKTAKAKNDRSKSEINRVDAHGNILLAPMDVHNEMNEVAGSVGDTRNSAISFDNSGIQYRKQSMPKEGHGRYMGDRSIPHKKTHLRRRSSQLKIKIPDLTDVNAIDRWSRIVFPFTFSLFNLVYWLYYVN

| Structure (SMILES) | cell toxicity in HepG2, percentage of control (relative cell viability) (HepG2 cells) [%] | cytotoxicity compared with prior art compounds (HepG2 cells) | inhibition at 10 µM [1] [%] | inhibition at 0.1 µM [1] [%] | inhibition at 10 µM [2] [%] | inhibition at 0.1 µM [2] [%] | Percent parent remaining ([3]; 60 min) [%] | Percent parent remaining ([3]; 120 min) [%] | inhibition in vivo at 0.98 µmol/kg (motor activity of mice; ip) [%] | inhibition in vivo at 98 µmol/kg (motor activity of mice; ip) [%] | inhibition in vivo at 3 µmol/kg (motor activity of mice; po) [%] | inhibition in vivo at 98 µmol/kg (motor activity of mice; po) [%] | also measured |
| --- | --- | --- | --- | --- | --- | --- | --- | --- | --- | --- | --- | --- | --- |
| CN(c1cc(-c2ccnc3c(C(=O)c4cccs4)cnn23)ccc1F)S(C)(=O)=O [Preparative example 6, N-{2-Fluoro-5-[3-(thiophene-2-carbonyl)-pyrazolo[1,5-a]pyrimidin-7-yl]-phenyl}-N-methyl-methanesulfonamide] | 84.31 | less cytotoxicity than prior art compounds | 99.7 | 88.8 | 97.9 | 55.9 | 103 | 106 | 69.4 | 91.5 | 46.2 | 82 | – |
| CCN(C(C)=O)c1cccc(-c2ccnc3c(C#N)cnn23)c1 [Zaleplon, reference compound] | – | – | – | – | – | – | – | – | 32.7 | 85 | 25.4 | 64.1 | – |
| CC(=O)N(C)c1cc(-c2ccnc3c(C(=O)c4cccs4)cnn23)ccc1Cl [Preparative example 4, N-{2-Chloro-5-[3-(thiophene-2-carbonyl)-pyrazolo[1,5-a]pyrimidin-7-yl]-phenyl}-N-methyl-acetamide] | 92.86 | less cytotoxicity than prior art compounds | 99.8 | 60 | 95.7 | 8.4 | 105 | 103 | – | 90.3 | – | 88.7 | – |
| CN(c1cccc(-c2ccnc3c(C(=O)c4cccs4)cnn23)c1)S(C)(=O)=O [Example 3 WO2005014597, N-{3-[3-(thiophene-2-carbonyl)-pyrazolo[1,5-a]pyrimidin-7-yl]-phenyl}-N-methyl-methanesulfonamide, reference compound] | – | – | 100 | 90.6 | 99.8 | 58.5 | – | – | 64.6 | 89.8 | – | – | – |
| C#CCN(c1cccc(-c2ccnc3c(C(=O)c4cccs4)cnn23)c1)S(C)(=O)=O [Example 16 WO2005014597, N-{3-[3-(thiophene-2-carbonyl)-pyrazolo[1,5-a]pyrimidin-7-yl]-phenyl}-N-prop-2-ynyl-methanesulfonamide, reference compound] | – | – | 100 | 99.9 | – | – | – | – | 71.4 | 95.4 | 38.8 | 84.3 | – |
| C#CCN(c1cc(-c2ccnc3c(C(=O)c4cccs4)cnn23)ccc1F)S(C)(=O)=O [Preparative example 10, N-{2-Fluoro-5-[3-(thiophene-2-carbonyl)-pyrazolo[1,5-a]pyrimidin-7-yl]-phenyl}-N-prop-2-ynyl-methanesulfonamide] | – | – | 100 | 99.7 | 100 | 97.5 | – | – | 91.9 | 91.6 | 47.9 | 90.2 | melting point: 149 to 153 °C; increase in sedative-hypnotic activity (motor activity of mice; versus Example 16 of WO2005014597, low dose, independently of the administration route): higher than 20% |
| CC(=O)N(C)c1cc(-c2ccnc3c(C(=O)c4cccs4)cnn23)ccc1F [Preparative example 2, N-{2-Fluoro-5-[3-(thiophene-2-carbonyl)-pyrazolo[1,5-a]pyrimidin-7-yl]-phenyl}-N-methyl-acetamide] | – | less cytotoxicity than prior art compounds | 100 | 95.3 | 99.3 | 67.3 | 104 | 110 | 81.2 | 95 | 84 | 92.3 | inhibition percentage (motor activity) (motor activity of mice; 5 minutes): 84%; inhibition percentage (motor activity) (motor activity of mice; 60 minutes): 84%; Vd [4]: 7.24 L/kg; clearance [4]: 45.7 mL/min/kg; half-life [4]: 104 min; AUC0-t [4]: 1100 ng·h/mL; area under the curve higher than Indiplon ([4]; versus Indiplon): 57%; clearance lower than Indiplon ([4]; versus Indiplon): 20%; half-life higher than Indiplon ([4]; versus Indiplon): 76%; volume of distribution higher than Indiplon ([4]; versus Indiplon): 212% |
| CN(c1cc(-c2ccnc3c(C(=O)c4cccs4)cnn23)ccc1Cl)S(C)(=O)=O [Preparative example 8, N-{2-Chloro-5-[3-(thiophene-2-carbonyl)-pyrazolo[1,5-a]pyrimidin-7-yl]-phenyl}-N-methyl-methanesulfonamide] | 75.39 | less cytotoxicity than prior art compounds | 93.8 | 40.9 | 68.9 | 0 | – | – | – | 78.3 | – | – | melting point: 241 to 243 °C |
| CC(=O)N(C)c1cccc(-c2ccnc3c(C(=O)c4cccs4)cnn23)c1 [Indiplon, N-{3-[3-(thiophene-2-carbonyl)-pyrazolo[1,5-a]pyrimidin-7-yl]-phenyl}-N-methyl-acetamide, reference compound] | – | – | – | – | – | – | 100 | 98 | 70.5 | 88 | 73.7 | 82.4 | inhibition percentage (motor activity) (motor activity of mice; 5 minutes): 74%; inhibition percentage (motor activity) (motor activity of mice; 60 minutes): 67%; Vd [4]: 2.32 L/kg; clearance [4]: 57.5 mL/min/kg; half-life [4]: 59 min; AUC0-t [4]: 700 ng·h/mL |
